# Laboratory results published in US20110105472A1, “Diaminopyrimidines as crop protection agents” (Bayer CropScience AG, priority 2008, published 2011).
# Test: logP by LC-MS, method [b], acidic range pH 2.7
# Type: physicochemical
# Settings: pH 2.7
row,Structure (SMILES),log p
1,Brc1cnc(Nc2ccccc2)nc1NC1CCC1 [Compound 229],2.18[b]
2,C=C(C)C(=O)Nc1cccc(Nc2ncc(Br)c(NC3CCC3)n2)c1 [Compound 98],1.9[b]
3,O=CNc1cccc(Nc2ncc(Br)c(NC3CCC3)n2)c1 [Compound 154],1.58[b]
4,CSc1ccc(Nc2ncc(Br)c(NC3CCC3)n2)cc1Cl [Compound 73],3.5[b]
5,CC(C)c1cccc(Nc2ncc(Cl)c(NC3CCC3)n2)c1 [Compound 243],3.1[b]
6,CCc1nc2cc(Nc3ncc(Br)c(NC4CCC4)n3)ccc2o1 [Compound 21],2.06[b]
7,CC(=O)N1CCc2ccc(Nc3ncc(Br)c(NC4CCC4)n3)cc21 [Compound 12],1.78[b]
8,OCc1cccc(Nc2ncc(Br)c(NC3CCC3)n2)c1 [Compound 185],1.44[b]
9,CS(=O)(=O)Nc1ccc(Nc2ncc(Br)c(NC3CCC3)n2)cc1 [Compound 85],1.61[b]
10,CC(C)c1cccc(Nc2ncc(Br)c(NC3CCC3)n2)c1 [Compound 205],3.21[b]
11,CC1(C(=O)Nc2ccc(Nc3ncc(Cl)c(NC4CCC4)n3)cc2)CC1 [compound 122],1.87[b]
12,N#CCc1cccc(Nc2ncc(C(F)(F)F)c(NC3CCC3)n2)c1 [Compound 226],3.01[b]
13,CC(C)(C)c1cccc(Nc2ncc(Cl)c(NC3CCC3)n2)c1 [compound 255],3.26[b]
14,CC(C)(C)C(=O)Nc1ccc(Nc2ncc(Br)c(NC3CCC3)n2)cc1 [Compound 92],2.02[b]
15,Cc1ccccc1Nc1ncc(Br)c(NC2CCC2)n1 [Compound 60],1.87[b]
16,CC(C)Sc1cccc(Nc2ncc(Cl)c(NC3CCC3)n2)c1 [Compound 146],3.62[b]
17,N#Cc1ccc(Nc2ncc(Cl)c(NC3CCC3)n2)cc1 [Compound 111],2.77[b]
18,OC(c1cccc(Nc2ncc(Br)c(NC3CCC3)n2)c1)C(F)(F)F (stereo not drawn) [Compound 214],2.17[b]

row,Structure (SMILES),log p
1,O=S(=O)(c1cccc(Nc2ncc(Cl)c(NC3CCC3)n2)c1)N1CCCCC1 [compound 130],2.3[b]
2,COC(=O)Nc1cccc(Nc2ncc(Br)c(NC3CCC3)n2)c1 [Compound 106],1.83[b]
3,O=C1NC(=O)c2cc(Nc3ncc(Br)c(NC4CCC4)n3)ccc21 [compound 22],2.25[b]
4,CC(C)c1cccc(Nc2ncc(C(F)(F)F)c(NC3CCC3)n2)c1 [Compound 225],4.61[b]
5,Oc1ccc(Nc2ncc(Br)c(NC3CCC3)n2)c(F)c1 [Compound 80],1.55[b]
6,CC(=O)c1ccc(Nc2ncc(Cl)c(NC3CCC3)n2)cc1 [compound 131],2.26[b]
7,CN1C(=O)COc2ccc(Nc3ncc(Br)c(NC4CCC4)n3)cc21 [compound 14],1.85[b]
8,CC(C)C(=O)Nc1ccc(Nc2ncc(Br)c(NC3CCC3)n2)cc1 [compound 169],1.83[b]
9,Brc1ccc(Nc2ncc(Br)c(NC3CCC3)n2)cc1 [compound 67],3.18[b]
10,CC(=O)Cc1ccc(Nc2ncc(Cl)c(NC3CCC3)n2)cc1 [Compound 244],1.75[b]
11,CCN(C(C)=O)c1ccc(Nc2ncc(Cl)c(NC3CCC3)n2)cc1 [Compound 119],1.83[b]
12,Cc1cccc(Nc2ncc(Cl)c(NC3CCC3)n2)c1 [Compound 231],2.33[b]
13,CN(C=O)c1ccc(Nc2ncc(Br)c(NC3CCC3)n2)cc1 [Compound 153],1.68[b]
14,CC(C)(C)NC(=O)Cc1cccc(Nc2ncc(Br)c(NC3CCC3)n2)c1 [Compound 143],2.19[b]
15,CC(=O)CCc1cccc(Nc2ncc(Cl)c(NC3CCC3)n2)c1 [Compound 256],1.98[b]
16,CC(C)(C)C(=O)Nc1cccc(Nc2ncc(Br)c(NC3CCC3)n2)c1 [Compound 99],2.11[b]
17,CNC(=O)Oc1cccc(Nc2ncc(Cl)c(NC3CCC3)n2)c1 [Compound 138],1.64[b]
18,O=CNc1ccc(Nc2ncc(Br)c(NC3CCC3)n2)cc1 [Compound 152],1.47[b]
